Results on two compounds are retold here after paper PMC3927586, “Protein kinase C-delta inactivation inhibits the proliferation and survival of cancer stem cells in culture and in vivo” (BMC Cancer, 2014).

The structures appear in SMILES notation.

The subject of data set [1] is cells with aberrant Ras signaling. Also on record: method as in PMID 24506253. As to conditions: cited from earlier work.
Data set [2] is described as follows: Drug-like properties: hydrophobicity. The class given is physicochemical.
In the next data set the test system is PCSC. The experiment in a line: Clonogenic assay with washout. The class given is cell-based, human. As to conditions: rottlerin 10 μM, colonies at 15 days. On the procedure: 100,000 cells were seeded on 100 mm dishes with 10 ml media per dish. On day 4, cells were treated with a PKCδ inhibitor or vehicle control for either 6, 18, 24 or 48 hours. Cells were trypsinized; counted via the trypan blue exclusion method in order to determine the number of live cells in the sample, and 300 live cells were seeded in triplicate onto 6-well plates. Cells were monitored for appropriate colony size and re-fed every three to four days. At Day 15, cells were stained with ethidium bromide and counted using UVP LabWorks software (Waltham, MA).
(§1) Figure 2 Effects of PKCδ inhibitors on human cancer stem cells. (A) PCSC and PrCSC cells at 80% confluence were exposed to rottlerin. DMSO served as vehicle control (Vehicle). After 24 and 72 hr of exposure, cell mass was evaluated by MTT assay. Control values were normalized to 100%. p values for comparison between treatments reached significance at 24 hr of exposure (p≤0.01) for both cell types, and remained significant at 72 hr. […] Cytotoxicity was evaluated by LDH-release assay. […] Viable cells were enumerated and re-plated in media without inhibitor, and colony numbers were quantitated 15 days later. p values for comparison of treatment effects on clonogenic capacity reached significance (p=0.005) at 18 hr of exposure and remained significant for all subsequent exposure times. […]

The subject of the next data set is PrCSC cells. The experiment in a line: Cell proliferation (MTT) of prostate cancer stem cells. The class given is cell-based, human. As to conditions: as early as 24 hr after exposure. Here is the method:
Cell proliferation was assessed using an MTT [3-(4,5-dimethylthiazol-2-yl)-2,5-diphenyltetrazolium bromide] assay (Roche, Mannheim, Germany). The number of viable cells growing in a single well on a 96-well microtiter plate was estimated by adding 10 μl of MTT solution (5 mg/ml in phosphate-buffered saline [PBS]). After 4 h of incubation at 37°C, the stain was diluted with 100 μl of dimethyl sulfoxide. The optical densities were quantified at a test wavelength of 570 nm and a reference wavelength of 690 nm on a multiwell spectrophotometer. In some assays, MTS was used as substrate (Promega, Madison, WI), and the absorbance of the product was monitored at 490 nm. Cell enumeration was carried out using a hemocytometer, and viable cells identified by trypan blue exclusion.
as §1, with “assay.” for “assay. Control values were normalized to 100%. p values for comparison between treatments reached significance at 24 hr of exposure (p≤0.01) for both cell types, and remained significant at 72 hr.”

Data set [3] relates to normal primary cells or cell lines. Conditions: at the concentrations employed herein; cited from earlier work.
The conditions of data set [4]: mice; cited from earlier work.

On to `CC1(C)C=Cc2cc(CCn3c4ccccc4c4ccccc43)cc(C=O)c2O1` [BJE6-106, 6-(2-(9H-carbazol-9-yl)ethyl)-2,2-dimethyl-2H-chromene-8-carbaldehyde], for which, in data set [1], the “concentrations producing cytotoxic activity against cells with aberrant Ras signaling” value was “nM concentrations”. Also, in data set [2], the hydrophobicity entry is given as “highly hydrophobic”.

With `CC(=O)c1c(O)c(C)c(O)c(Cc2c(O)c3c(c(C(=O)/C=C/c4ccccc4)c2O)OC(C)(C)C=C3)c1O` [rottlerin, Rottlerin, reference compound], the “decrease of clonogenic capacity of PCSC” value in the data set on PCSC (18 hr exposure then washout) turned out to be 40%. Also, the “reduction of clonogenic potential of PCSC” value with PCSC (48 hr exposure then washout) is “more than 90%”. The “effect on proliferation of PrCSC” value with PrCSC cells is given as “significant dose-dependent inhibition of proliferation”. Also, the “cytostatic or cytotoxic effect on normal primary cells or cell lines” value in data set [3] is “not cytostatic or cytotoxic”. The “tolerability when administered orally or intraperitoneally” value in data set [4] is reported as “well-tolerated”.
